Legend:
[1] = biological target: T1, ATP-citrate synthase (ACLY) (Homo sapiens, UniProt P53396); test: TMT LC-MSMS of 11-labelled proteins; format: cell-based
T1 sequence (P53396 1-1101): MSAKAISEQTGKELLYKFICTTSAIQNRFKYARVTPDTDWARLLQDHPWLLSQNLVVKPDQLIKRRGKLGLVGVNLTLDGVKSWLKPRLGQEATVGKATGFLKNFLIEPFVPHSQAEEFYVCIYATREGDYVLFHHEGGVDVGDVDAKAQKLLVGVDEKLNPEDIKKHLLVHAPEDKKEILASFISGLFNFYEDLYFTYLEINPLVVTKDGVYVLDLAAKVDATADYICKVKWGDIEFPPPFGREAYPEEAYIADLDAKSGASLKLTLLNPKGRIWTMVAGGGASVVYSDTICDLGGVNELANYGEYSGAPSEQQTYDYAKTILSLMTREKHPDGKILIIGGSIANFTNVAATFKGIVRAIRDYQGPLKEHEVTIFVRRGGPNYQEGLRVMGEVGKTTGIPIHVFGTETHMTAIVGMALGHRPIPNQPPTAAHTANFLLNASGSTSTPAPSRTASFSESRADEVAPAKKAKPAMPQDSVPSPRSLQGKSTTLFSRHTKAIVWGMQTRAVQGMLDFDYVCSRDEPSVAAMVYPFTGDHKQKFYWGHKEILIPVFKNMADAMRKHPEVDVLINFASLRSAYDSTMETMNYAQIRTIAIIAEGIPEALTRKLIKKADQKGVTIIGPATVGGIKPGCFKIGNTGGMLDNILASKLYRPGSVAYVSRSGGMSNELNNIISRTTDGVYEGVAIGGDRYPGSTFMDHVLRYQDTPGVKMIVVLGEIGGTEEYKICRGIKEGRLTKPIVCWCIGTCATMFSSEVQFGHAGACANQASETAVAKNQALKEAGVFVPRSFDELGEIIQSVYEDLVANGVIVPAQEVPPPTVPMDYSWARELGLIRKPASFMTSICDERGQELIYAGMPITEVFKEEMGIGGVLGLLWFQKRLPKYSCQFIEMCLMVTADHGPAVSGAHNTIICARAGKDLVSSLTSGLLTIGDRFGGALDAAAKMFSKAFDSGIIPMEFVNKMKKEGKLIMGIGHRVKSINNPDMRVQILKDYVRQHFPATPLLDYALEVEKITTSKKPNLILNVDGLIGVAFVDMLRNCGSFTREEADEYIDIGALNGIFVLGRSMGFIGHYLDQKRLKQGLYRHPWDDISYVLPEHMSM

[2] = biological target: 2,4-dienoyl-CoA reductase, mitochondrial (DECR1) (Homo sapiens, UniProt Q16698); test: TMT LC-MSMS of 11-labelled proteins; format: cell-based
[3] = sheet Merged, SKBR3 cells, 11 0.5 µM 3 h vs DMSO
[4] = sheet Merged, SKBR3 cells, 11 0.5 µM 3 h vs with PU-H71 10 µM

2,4-dienoyl-CoA reductase, mitochondrial (DECR1), sequence (Q16698 35-335): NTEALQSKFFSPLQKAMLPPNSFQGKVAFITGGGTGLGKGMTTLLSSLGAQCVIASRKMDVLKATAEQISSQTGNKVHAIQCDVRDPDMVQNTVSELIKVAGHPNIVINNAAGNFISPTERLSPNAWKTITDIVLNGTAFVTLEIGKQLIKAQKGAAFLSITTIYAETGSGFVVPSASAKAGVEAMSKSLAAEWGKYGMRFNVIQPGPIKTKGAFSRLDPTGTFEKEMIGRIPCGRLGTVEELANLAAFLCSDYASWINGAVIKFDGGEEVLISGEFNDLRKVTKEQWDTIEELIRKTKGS

Abundance Ratio: (11) / (11 with PU-H71) ([1]; Exp3, ACLY): 0.932 | Abundance Ratio: (11) / (DMSO) ([1]; Exp3, ACLY): 2.236 | Abundances (Grouped): 11 ([1]; Exp3, ACLY): 52.1 | Abundances (Grouped): 11 with PU-H71 ([1]; Exp3, ACLY): 55.9 | Abundance Ratio: (11) / (11 with PU-H71) ([1]; sheet Exp2, ACLY): 0.837 | Abundance Ratio: (11) / (DMSO) ([1]; sheet Exp2, ACLY): 2.101 | Abundances (Grouped): 11 ([1]; sheet Exp2, ACLY): 33.4 | Abundances (Grouped): 11 with PU-H71 ([1]; sheet Exp2, ACLY): 39.9 | Abundance Ratio: (11) / (DMSO) [1, 3]: 2.047 | Abundance Ratio: (11) / (11 with PU-H71) [1, 4]: 0.851 | Abundance Ratio: (11) / (DMSO) ([2]; sheet Exp1, SKBR3 cells, 11 0.5 µM 3 h vs DMSO): 2.538 | Abundance Ratio: (11) / (11 with PU-H71) ([2]; sheet Exp1, SKBR3 cells, 11 0.5 µM 3 h vs with PU-H71 10 µM): 0.793 | Abundance Ratio: (11) / (11 with PU-H71) ([2]; sheet Exp2, DECR1): 0.758 | Abundance Ratio: (11) / (DMSO) ([2]; sheet Exp2, DECR1): 1.823 | Abundances (Grouped): 11 ([2]; sheet Exp2, DECR1): 59.8 | Abundances (Grouped): 11 with PU-H71 ([2]; sheet Exp2, DECR1, with PU-H71): 78.9 | Abundance Ratio: (11) / (DMSO) [2, 3]: 2.151 | Abundance Ratio: (11) / (11 with PU-H71) [2, 4]: 0.775
SMILES: CC(=O)Oc1ccc2c(c1)Oc1cc(OC(C)=O)ccc1C21OC(=O)c2cc(C(=O)NCCOCCOCCNC(=O)CCCC(=O)N(CC#N)S(=O)(=O)c3ccc(C(=O)NCCCn4c(Sc5cc6c(cc5I)OCO6)nc5c(N)ncnc54)cc3)ccc21 [compound 11]

Reference: publication PMC5951806, “Rapid labelling and covalent inhibition of intracellular native proteins using ligand-directed N-acyl-N-alkyl sulfonamide” (Nature Communications, 2018)
